{
  "source": "paper PMC4180945",
  "about": "(Tetrahedron, 2014)",
  "key": {"[1]": {"target": "GST-FKBP12 fusion protein (Homo sapiens, UniProt P62942)", "sequence (P62942 whole entry, the tested form may be a part)": "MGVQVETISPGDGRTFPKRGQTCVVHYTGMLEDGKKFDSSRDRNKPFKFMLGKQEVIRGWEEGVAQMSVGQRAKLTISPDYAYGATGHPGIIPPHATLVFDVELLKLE", "test": "Selectivity binding to arbitrarily selected protein: GST-FKBP12"}, "[2]": {"target": "bovine serum albumin (BSA) (Bos taurus, UniProt P02769)", "sequence (P02769 25-607)": "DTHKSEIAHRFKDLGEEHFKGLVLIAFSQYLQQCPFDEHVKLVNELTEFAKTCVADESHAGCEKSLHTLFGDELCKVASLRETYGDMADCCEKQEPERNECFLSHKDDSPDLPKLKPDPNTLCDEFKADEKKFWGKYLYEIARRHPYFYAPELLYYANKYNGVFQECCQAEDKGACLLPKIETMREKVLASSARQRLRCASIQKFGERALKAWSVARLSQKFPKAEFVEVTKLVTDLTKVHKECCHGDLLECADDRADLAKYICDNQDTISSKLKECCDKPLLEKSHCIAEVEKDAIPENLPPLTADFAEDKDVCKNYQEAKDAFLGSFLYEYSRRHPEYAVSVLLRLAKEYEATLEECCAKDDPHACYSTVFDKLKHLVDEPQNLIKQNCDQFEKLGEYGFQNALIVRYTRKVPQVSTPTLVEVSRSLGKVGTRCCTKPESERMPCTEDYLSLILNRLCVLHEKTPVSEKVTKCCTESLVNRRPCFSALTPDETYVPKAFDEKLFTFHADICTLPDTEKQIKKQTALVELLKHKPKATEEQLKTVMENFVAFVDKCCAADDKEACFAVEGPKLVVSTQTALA", "test": "Selectivity binding to arbitrarily selected protein: BSA"}, "[3]": {"target": "T1, GST-SHD SH2 domain fusion protein (Homo sapiens, UniProt Q96IW2)", "T1 sequence (Q96IW2 240-335 limits assumed)": "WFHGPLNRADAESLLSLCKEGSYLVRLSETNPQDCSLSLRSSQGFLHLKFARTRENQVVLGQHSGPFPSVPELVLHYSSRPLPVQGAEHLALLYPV", "test": "Selectivity binding to arbitrarily selected protein: GST-SHD SH2"}, "[4]": {"target": "T2, protein-tyrosine phosphatase 1B (PTP1B) (Homo sapiens, UniProt P18031)", "T2 sequence (P18031 1-435)": "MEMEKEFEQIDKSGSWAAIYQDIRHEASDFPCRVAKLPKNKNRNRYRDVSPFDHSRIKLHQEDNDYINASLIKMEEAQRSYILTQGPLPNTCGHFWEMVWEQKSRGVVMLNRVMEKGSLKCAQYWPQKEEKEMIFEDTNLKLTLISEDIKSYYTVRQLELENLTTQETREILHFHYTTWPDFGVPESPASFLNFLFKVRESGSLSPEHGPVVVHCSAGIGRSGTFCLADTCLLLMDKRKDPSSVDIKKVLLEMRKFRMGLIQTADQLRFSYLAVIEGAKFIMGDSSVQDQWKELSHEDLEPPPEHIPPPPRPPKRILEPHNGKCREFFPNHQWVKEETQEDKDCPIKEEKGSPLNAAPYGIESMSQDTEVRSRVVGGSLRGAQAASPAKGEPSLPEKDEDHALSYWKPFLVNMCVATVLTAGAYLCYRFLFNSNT", "test": "Selectivity binding to arbitrarily selected protein: PTP1B"}, "[5]": {"target": "maltose-binding protein-XIAP BIR3 domain fusion (MBP-BIR3) (Homo sapiens, UniProt P98170)", "sequence (P98170 241-356 limits assumed)": "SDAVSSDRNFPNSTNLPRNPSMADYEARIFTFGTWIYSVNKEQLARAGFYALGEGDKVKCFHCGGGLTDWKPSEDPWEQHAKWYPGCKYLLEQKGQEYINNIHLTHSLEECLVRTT", "test": "Selectivity binding to arbitrarily selected protein: MBP-BIR3"}},
  "data": [
    {"substance": "Trp-phe-Asp-Lys-phe-asn-His-Dap [Peptide 38]", "values": [
      {"measurement": "Binding to GST-FKBP12", "setting": "[1]", "result": "no binding"},
      {"measurement": "Fold higher KD for BSA than that of K-Ras", "setting": "[2]", "result": "47-120 fold"},
      {"measurement": "Fold higher KD for GST-SHD SH2 than that of K-Ras", "setting": "[3]", "result": "47-120 fold"},
      {"measurement": "Binding to PTP1B", "setting": "[4]", "result": "no binding"},
      {"measurement": "Fold higher KD for MBP-BIR3 than that of K-Ras", "setting": "[5]", "result": "47-120 fold"}
    ]}
  ]
}
